Experimental data: publication PMC8418874 (European journal of medicinal chemistry, 2018)

How the values were obtained:
SKOV-3 cells [1] = test: Fluorescence microscopy, cellular localization; format: cell-based, human; conditions: SKOV-3, 5 μM, DAPI nuclear stain
SKOV-3 cells [2] = test: Cellular uptake by flow cytometry; format: cell-based, human; conditions: SKOV-3, Dox 5 μM, Dox-SS-Pyr 50 μM, Dox-SS-[C(WR)4K] 50 μM, 3 h, 37 °C, serum-free medium, triplicate
HT-1080 cells = test: Cellular uptake by flow cytometry; format: cell-based, human; conditions: HT-1080, Dox 5 μM, Dox-SS-Pyr 50 μM, Dox-SS-[C(WR)4K] 50 μM, 3 h, 37 °C, serum-free medium, triplicate
[3] = system: human ovarian cancer cells (SKOV-3); test: Antiproliferative activity / viability assay; format: cell-based; conditions: SK-OV-3, 24 h, read-out: inhibition of cell proliferation

With `COc1cccc2c1C(=O)c1c(O)c3c(c(O)c1C2=O)C[C@@](O)(C(=O)CO)C[C@@H]3O[C@H]1C[C@H](NC(=N)CCCS)[C@H](O)[C@H](C)O1` [Dox-SH, thiolated doxorubicin] the cellular localization (SKOV-3 cells [1]; after 1 h) was “distributed mostly outside the nucleus”.

In the case of `COc1cccc2c1C(=O)c1c(O)c3c(c(O)c1C2=O)C[C@@](O)(C(=O)CO)C[C@@H]3O[C@H]1C[C@H](N)[C@H](O)[C@H](C)O1` [Dox, Doxorubicin], the “cellular uptake (mean fluorescence)” value (SKOV-3 cells [2]) is reported as “higher cellular uptake in SKOV-3 and HT-1080 cells”, the cellular localization (SKOV-3 cells [1]; after 1 h) is reported as “localized in the nucleus” and the cellular localization (SKOV-3 cells [1]; after 24 h) is reported as “localized in the nucleus”. The “cellular uptake (mean fluorescence)” value (HT-1080 cells) was “higher cellular uptake in SKOV-3 and HT-1080 cells” and the inhibition at 5 µM [3] was 76%.

In the case of `COc1cccc2c1C(=O)c1c(O)c3c(c(O)c1C2=O)C[C@@](O)(C(=O)CO)C[C@@H]3O[C@H]1C[C@H](NC(=N)CCCSSc2ccccn2)[C@H](O)[C@H](C)O1` [Dox-SS-Pyr, pyridyl doxorubicin], the cellular localization (SKOV-3 cells [1]; after 1 h) is reported as “distributed mostly outside the nucleus”.
